Source: patent US10687531B2, “Urea and thiourea substituted bicycles derivatives as pesticides” (SYNGENTA PARTICIPATIONS AG, priority 2016, dated 2020)

Assays:
Diabrotica balteata = assay: Example B3: Diabrotica balteata (corn root worm), maize sprouts, L2 larvae; type: in vivo; conditions: 96 h, application rate 200 ppm, 4 days after infestation, read-out: effect in at least one of the two categories (mortality or growth inhibition)
Protocol: Example B3: Diabrotica balteata (Corn Root Worm)
Maize sprouts, placed on an agar layer in 24-well microtiter plates were treated with aqueous test solutions prepared from 10,000 ppm DMSO stock solutions by spraying. After drying, the plates were infested with L2 larvae (6 to 10 per well). The samples were assessed for mortality and growth inhibition in comparison to untreated samples 4 days after infestation.

Euschistus heros = assay: Example B4: Euschistus heros, soybean leaf spray, N-2 nymphs; type: in vivo; conditions: 120 h, application rate 200 ppm, 5 days after infestation, read-out: effect in at least one of the two categories (mortality or growth inhibition)
Protocol: Example B4: Euschistus heros
Soybean leaf on agar in 24-well microtiter plates were sprayed with aqueous test solutions prepared from 10,000 ppm DMSO stock solutions. After drying the leaf were infested with N-2 nymphs. The samples were assessed for growth inhibition in comparison to untreated samples 5 days after infestation.

Spodoptera littoralis = assay: Example B1: Spodoptera littoralis (Egyptian cotton leaf worm), cotton leaf disc spray, L1 larvae; type: in vivo; conditions: foliar, 72 h, application rate 200 ppm, 3 days after infestation, read-out: control (at least one of mortality, anti-feedant effect, growth inhibition)
Protocol: Example B1: Spodoptera littoralis (Egyptian Cotton Leaf Worm)
Cotton leaf discs were placed on agar in 24-well microtiter plates and sprayed with aqueous test solutions prepared from 10,000 ppm DMSO stock solutions. After drying, the leaf discs were infested with five L1 larvae. The samples were assessed for mortality, anti-feedant effect, and growth inhibition in comparison to untreated samples 3 days after infestation. Control of Spodoptera littoralis by a test sample is when at least one of mortality, anti-feedant effect, and growth inhibition is higher than the untreated sample.

[1] = tested on: Frankliniella occidentalis; assay: Example B6: Frankliniella occidentalis (western flower thrips), sunflower leaf disc spray; type: in vivo; conditions: foliar, 168 h, application rate 200 ppm, 7 days after infestation, mixed ages
Protocol: Example B6: Frankliniella occidentalis (Western Flower Thrips)
(§1) Sunflower leaf discs were placed on agar in 24-well microtiter plates and sprayed with aqueous test solutions prepared from 10,000 DMSO stock solutions. After drying the leaf discs were infested with a Frankliniella population of mixed ages. The samples were assessed for mortality 7 days after infestation.

Plutella xylostella = assay: Example B2: Plutella xylostella (diamond back moth), artificial diet, L2 larvae; type: in vivo; conditions: 120 h, application rate 200 ppm, 5 days after infestation, read-out: effect in at least one of the two categories (mortality or growth inhibition)
Protocol: Example B2: Plutella xylostella (Diamond Back Moth)
24-well microtiter plates with artificial diet were treated with aqueous test solutions prepared from 10,000 ppm DMSO stock solutions by pipetting. After drying, the plates were infested with L2 larvae (10 to 15 per well). The samples were assessed for mortality and growth inhibition in comparison to untreated samples 5 days after infestation.

Thrips tabaci = assay: Example B5: Thrips tabaci (onion thrips), sunflower leaf disc spray; type: in vivo; conditions: foliar, 144 h, application rate 200 ppm, 6 days after infestation, mixed ages
Protocol: Example B5: Thrips tabaci (Onion Thrips)
as §1, with “10,000 ppm” for “10,000”, “thrips” for “Frankliniella”, “6” for “7”

| Compound | percent effect (mortality or growth inhibition) at 200 ppm (Diabrotica balteata) | percent effect (mortality or growth inhibition) at 200 ppm (Euschistus heros) | melting point | control at 200 ppm (Spodoptera littoralis) | mortality at 200 ppm [1] | percent control (mortality or growth inhibition) at 200 ppm (Plutella xylostella) | mortality at 200 ppm (Thrips tabaci) |
| --- | --- | --- | --- | --- | --- | --- | --- |
| Cc1cccc(C)c1N1/C(=N/c2ncc3cc(-c4ncn(-c5ccc(OC(F)(F)F)cc5)n4)ccc3n2)SCC1(C)O (stereo not shown) [Compound P2.7, (2Z)-3-(2,6-dimethylphenyl)-4-methyl-2-[6-[1-[4-(trifluoromethoxy)phenyl]-1,2,4-triazol-3-yl]quinazolin-2-yl]imino-thiazolidin-4-ol] | ≥ 80% | ≥ 80% |  |  |  |  |  |
| Cc1cccc(C)c1NC(=O)Nc1ncc2cc(-c3ncn(-c4ccc(OC(F)(F)F)cc4)n3)ccc2n1 [Compound P2.6, 1-(2,6-dimethylphenyl)-3-[6-[1-[4-(trifluoromethoxy)phenyl]-1,2,4-triazol-3-yl]quinazolin-2-yl]urea] |  |  | 247 to 249 °C |  |  |  |  |
| Cc1cccc(C)c1/N=C1/SCN1c1nc2ccc(-c3ncn(-c4ccc(OC(F)(F)F)cc4)n3)cc2s1 [Compound P2.15, N-(2,6-dimethylphenyl)-3-[6-[1-[4-(trifluoromethoxy)phenyl]-1,2,4-triazol-3-yl]-1,3-benzothiazol-2-yl]-1,3-thiazetidin-2-imine] |  |  | > 250 °C |  |  |  |  |
| CC(C)c1ccccc1N1CS/C1=N\c1ccc2cc(-c3ncn(-c4ccc(OC(F)(F)F)cc4)n3)ccc2n1 [Compound P2.1, 3-(2-isopropylphenyl)-N-[6-[1-[4-(trifluoromethoxy)phenyl]-1,2,4-triazol-3-yl]-2-quinolyl]-1,3-thiazetidin-2-imine] | ≥ 80% |  |  | ≥ 80% | ≥ 80% | ≥ 80% |  |
| CC(C)c1ccccc1/N=C1/SCC(=O)N1c1ccc2cc(-c3ncn(-c4ccc(OC(F)(F)F)cc4)n3)ccc2n1 [Compound P2.4, (2E)-2-(2-isopropylphenyl)imino-3-[6-[1-[4-(trifluoromethoxy)phenyl]-1,2,4-triazol-3-yl]-2-quinolyl]thiazolidin-4-one] | ≥ 80% | ≥ 80% |  | ≥ 80% | ≥ 80% | ≥ 80% | ≥ 80% |
| Cc1cs/c(=N\c2ccc3cc(-c4ncn(-c5ccc(OC(F)(F)F)cc5)n4)ccc3n2)n1-c1ccccc1C(C)C [Compound P2.2, 3-(2-isopropylphenyl)-4-methyl-N-[6-[1-[4-(trifluoromethoxy)phenyl]-1,2,4-triazol-3-yl]-2-quinolyl]thiazol-2-imine] | ≥ 80% |  |  | ≥ 80% | ≥ 80% | ≥ 80% |  |
| Cc1cccc(C)c1NC(=S)Nc1nc2ccc(-c3ncn(-c4ccc(OC(F)(F)F)cc4)n3)cc2s1 [Compound P2.17, 1-(2,6-dimethylphenyl)-3-[6-[1-[4-(trifluoromethoxy)phenyl]-1,2,4-triazol-3-yl]-1,3-benzothiazol-2-yl]thiourea] | ≥ 80% | ≥ 80% |  | ≥ 80% |  | ≥ 80% |  |
| Cc1cccc(C)c1N1CS/C1=N\c1ncc2cc(-c3ncn(-c4ccc(OC(F)(F)F)cc4)n3)ccc2n1 [Compound P2.8, 3-(2,6-dimethylphenyl)-N-[6-[1-[4-(trifluoromethoxy)phenyl]-1,2,4-triazol-3-yl]quinazolin-2-yl]-1,3-thiazetidin-2-imine] |  |  | 227 to 229 °C |  |  |  |  |
| Cc1cccc(C)c1N1CS/C1=N\c1nc2ccc(-c3ncn(-c4ccc(OC(F)(F)F)cc4)n3)cc2s1 [Compound P2.14, 3-(2,6-dimethylphenyl)-N-[6-[1-[4-(trifluoromethoxy)phenyl]-1,2,4-triazol-3-yl]-1,3-benzothiazol-2-yl]-1,3-thiazetidin-2-imine] |  |  |  | ≥ 80% |  | ≥ 80% | ≥ 80% |
| CC(C)c1ccccc1N1C(=O)CS/C1=N\c1ccc2cc(-c3ncn(-c4ccc(OC(F)(F)F)cc4)n3)ccc2n1 [Compound P2.3, (2Z)-3-(2-isopropylphenyl)-2-[[6-[1-[4-(trifluoromethoxy)phenyl]-1,2,4-triazol-3-yl]-2-quinolyl]imino]thiazolidin-4-one] | ≥ 80% |  |  | ≥ 80% | ≥ 80% | ≥ 80% |  |
| Cc1cccc(C)c1N1CS/C1=N\c1cnc2cc(-c3ncn(-c4ccc(OC(F)(F)F)cc4)n3)ccc2n1 [Compound P2.12, 3-(2,6-dimethylphenyl)-N-[6-[1-[4-(trifluoromethoxy)phenyl]-1,2,4-triazol-3-yl]quinoxalin-2-yl]-1,3-thiazetidin-2-imine] |  |  |  | ≥ 80% | ≥ 80% |  |  |
| CC(C)c1ccccc1NC(=O)Nc1ccc2cc(-c3ncn(-c4ccc(OC(F)(F)F)cc4)n3)ccc2n1 [Compound P1.3, 1-(2-isopropylphenyl)-3-[6-[1-[4-(trifluoromethoxy)phenyl]-1,2,4-triazol-3-yl]-2-quinolyl]urea] | ≥ 80% |  |  |  |  | ≥ 80% |  |
| CC(C)c1ccccc1NC(=S)Nc1ccc2cc(-c3ncn(-c4ccc(OC(F)(F)F)cc4)n3)ccc2n1 [Compound P1.4, 1-(2-isopropylphenyl)-3-[6-[1-[4-(trifluoromethoxy)phenyl]-1,2,4-triazol-3-yl]-2-quinolyl]thiourea] | ≥ 80% |  |  | ≥ 80% |  | ≥ 80% |  |
| Cc1cccc(C)c1N1C(=O)CS/C1=N\c1ncc2cc(-c3ncn(-c4ccc(OC(F)(F)F)cc4)n3)ccc2n1 [Compound P2.9, (2Z)-3-(2,6-dimethylphenyl)-2-[6-[1-[4-(trifluoromethoxy)phenyl]-1,2,4-triazol-3-yl]quinazolin-2-yl]imino-thiazolidin-4-one] | ≥ 80% |  |  | ≥ 80% |  | ≥ 80% |  |
| Cc1cccc(C)c1NC(=S)Nc1cnc2cc(-c3ncn(-c4ccc(OC(F)(F)F)cc4)n3)ccc2n1 [Compound P2.11, 1-(2,6-dimethylphenyl)-3-[6-[1-[4-(trifluoromethoxy)phenyl]-1,2,4-triazol-3-yl]quinoxalin-2-yl]thiourea] | ≥ 80% |  |  | ≥ 80% |  | ≥ 80% |  |
| Cc1cccc(C)c1NC(=S)Nc1ccc2cc(-c3ncn(-c4ccc(OC(F)(F)F)cc4)n3)ccc2c1 [Compound P2.13, 1-(2,6-dimethylphenyl)-3-[6-[1-[4-(trifluoromethoxy)phenyl]-1,2,4-triazol-3-yl]-2-naphthyl]thiourea] | ≥ 80% |  |  | ≥ 80% |  | ≥ 80% |  |
